Columns and labels:
5-HT3 receptor = 5-HT3 receptor binding test ([^3 H] quipazine, NG108-15 cell membrane fraction); parameters: species or system rat; details: 2 nM [^3 H] quipazine, 37° C., 60 minutes, pH 7.5; for Inhibition Rate (%) (concentration) 10^-7 M: 10^-7 M test compound; for Inhibition Rate (%) (concentration) 10^-8 M: 10^-8 M test compound
Procedure: 5-HT3 receptor binding test
Using rat neutroblastoma-glicoma NG108-15 cell membrane fraction, the binding activities of the test compounds to 5-HT3 receptor were examined.
A membrane fraction of NG108-15 cells was prepared according to the method of Neijt et al. [Naunyn-Schmiedeberg's Arch. Pharmacol., 337, 493 (1988)].
The receptor binding test was performed using [^3 H] quipazine [J. Neurochem., 52, 1787 (1989)], a high affinity ligand to 5-HT3 receptor.
A membrane fraction obtained from 4×10^5 NG108-15 cells was suspended in 1 ml of 20 mM Tris-hydrochloride buffer (pH 7.5) (hereinafterreferred to as Buffer) containing 154 mM sodium chloride. Then, 2 nM [^3 H] quipazine (2519.7 GBq/mmol; NEN CO.) and various concentrations of the test compound were added to the suspension followed by incubating at 37° C. for 60 minutes. 4 ml of ice-cold Buffer was added to terminate the reaction and then the mixture was filtered through GF/C glass fiber filter (Whatmann Co., Ltd.). The filter was washed 5 times with 2 ml of ice-cold Buffer, and put in a scintillation vial containing 8 ml of Scintisol EX-H (Wako Pure Chemicals, Inc.). Radioactivity on the filter was counted in a liquid scintillation counter (TRI-CARB 2200CA; Packard Co., Ltd.).
An inhibition of the [^3 H] quipazine binding by the test compound was estimated according to the equation; [formula]
"Total binding" is [^3 H] quipazine-binding in the absence of test compound and "non-specific binding" is [^3 H] quipazine-binding in the presence of 10 μM MDL7222 5-HT3 antagonist [Naunyn-Schmiedeberg's Arch. Pharmacol., 326, 36 (1984)].

dd-Y-strain male mice = experiment: Acute Toxicity (minimum lethal dose); format: in vivo; details: mortality for 7 days
Procedure: A test compound was intraperitoneally and orally administered to dd-Y-strain male mice weighing 20 to 25 g. The minimum lethal dose (MLD) was determined by observing the mortality for 7 days after the administration.

[1] = system: Cisplatin-induced Vomiting; experiment: Activity Against Cisplatin-induced Vomiting; format: in vivo, Suncus murinus; details: 1.0 mg/kg i.p., 30 minutes before cisplatin 40 mg/kg i.p., n = 10
Procedure: Activity Against Cisplatin-induced Vomiting
In one group, 5 to 10 female and male Suncus murinus animals weighing 23 to 68 g were used. According to the method of Matsuki et al. [Japan J. Pharmacol., 48, 303 (1988)], each animal was put into a separate metal net cage (width 15 cm ×length 21 cm ×height 15 cm). One hour after, a test compound or physiological saline (control) was intraperitoneally (i.p.) administered in a dose of 10 μl/g of body weight. Further 30 minutes after administration of the test compound or physiological saline (control), 40 mg/kg of cisplatin was intraperitoneally administered. Taking no account of vomiting caused for 5 minytes after administration of cisplatin, a time period (latency) for the first vomiting and the number of frequencies (episodes) of vomiting caused for the period of 5 to 120 minutes after administration were determined. The latency and the number of frequencies in the test compound administered group were compared with those in the control group. The test of significance was performed by Student's t-test.

## CN1[C@@H]2CC[C@H]1C[C@@H](NC(=O)c1c(O)c3sccc3[nH]c1=O)C2 [Compound 1, Endo-N-(8-methyl-8-azabicyclo[3.2.1]oct-3-yl)-4,5-dihydro-7-hydroxy-5-oxothieno[3,2-b]pyridine-6-carboxamide]
5-HT3 receptor
  Inhibition Rate (%) (concentration) 10^-7 M: 94%
  Inhibition Rate (%) (concentration) 10^-8 M: 44%
dd-Y-strain male mice
  MLD (mg/kg) i.p.: > 100 mg/kg
  MLD (mg/kg) p.o.: > 300 mg/kg
[1]; 5 to 120 minutes after cisplatin, control 29.2 ± 4.5 (n = 5)
  Number of Vomiting episodes (mean ± S.E.M.): 9.3 ± 2.2
[1]; time to first vomiting, control 28.6 ± 6.3 (n = 5)
  Latency (min.) (mean ± S.E.M.): 66.0 ± 10.4 min

## CCCCn1c(=O)c(C(=O)N[C@H]2C[C@H]3CC[C@@H](C2)N3C)c(O)c2sccc21 [Compound 3, Endo-N-(8-methyl-8-azabicyclo[3.2.1]oct-3-yl)-4-(n-butyl)-4,5-dihydro-7-hydroxy-5-oxothieno[3,2-b]pyridine-6-carboxamide]
5-HT3 receptor
  Inhibition Rate (%) (concentration) 10^-7 M: 101%
  Inhibition Rate (%) (concentration) 10^-8 M: 98%
dd-Y-strain male mice
  MLD (mg/kg) p.o.: > 200 mg/kg

## CCCCn1c(=O)c(C(=O)O[C@H]2C[C@H]3CC[C@@H](C2)N3C)c(O)c2sccc21 [Compound 4, Endo-8-methyl-8-azabicyclo[3.2.1]oct-3-yl 4-(n-butyl)-4,5-dihydro-7-hydroxy-5-oxothieno[3,2-b]pyridine-6-carboxylate]
dd-Y-strain male mice
  MLD (mg/kg) i.p.: > 50 mg/kg
  MLD (mg/kg) p.o.: > 100 mg/kg

## CCCCn1c(=O)c(C(=O)N[C@H]2C[C@H]3CC[C@@H](C2)N3C)c(O)c2ccsc21 [Compound 5, Endo-N-(8-methyl-8-azabicyclo[3.2.1]oct-3-yl)-7-(n-butyl)-6,7-dihydro-4-hydroxy-6-oxothieno[2,3-b]pyridine-5-carboxamide]
5-HT3 receptor
  Inhibition Rate (%) (concentration) 10^-7 M: 105%
  Inhibition Rate (%) (concentration) 10^-8 M: 100%
dd-Y-strain male mice
  MLD (mg/kg) i.p.: > 100 mg/kg
  MLD (mg/kg) p.o.: > 300 mg/kg

## CCCCn1c(=O)c(C(=O)O[C@H]2C[C@H]3CC[C@@H](C2)N3C)c(O)c2ccsc21 [Compound 6, Endo-8-methyl-8-azabicyclo[3.2.1]oct-3-yl 7-(n-butyl)-6,7-dihydro-4-hydroxy-6-oxothieno[2,3-b]pyridine-5-carboxylate]
dd-Y-strain male mice
  MLD (mg/kg) i.p.: > 100 mg/kg
  MLD (mg/kg) p.o.: > 100 mg/kg

## CN1[C@@H]2CC[C@H]1C[C@@H](NC(=O)c1c(O)c3ccsc3[nH]c1=O)C2 [Compound 7, Endo-N-(8-methyl-8-azabicyclo[3.2.1]oct-3-yl)-6,7-dihydro-4-hydroxy-6-oxothieno[2,3-b]pyridine-5-carboxamide]
5-HT3 receptor
  Inhibition Rate (%) (concentration) 10^-7 M: 71%
  Inhibition Rate (%) (concentration) 10^-8 M: 23%

## CN1[C@@H]2CC[C@H]1C[C@@H](OC(=O)c1c(O)c3ccsc3[nH]c1=O)C2 [Compound 8, Endo-8-methyl-8-azabicyclo[3.2.1]oct-3-yl 6,7-dihydro-4-hydroxy-6-oxothieno[2,3-b]pyridine-5-carboxylate]
dd-Y-strain male mice
  MLD (mg/kg) i.p.: > 100 mg/kg
  MLD (mg/kg) p.o.: > 300 mg/kg

## CN1[C@@H]2CCC[C@H]1C[C@@H](NC(=O)c1c(O)c3ccsc3[nH]c1=O)C2 [Compound 9, Endo-N-(9-methyl-9-azabicyclo[3.3.1]non-3-yl)-6,7-dihydro-4-hydroxy-6-oxothieno[2,3-b]pyridine-5-carboxamide]
5-HT3 receptor
  Inhibition Rate (%) (concentration) 10^-7 M: 69%
  Inhibition Rate (%) (concentration) 10^-8 M: 12%
dd-Y-strain male mice
  MLD (mg/kg) i.p.: > 50 mg/kg
  MLD (mg/kg) p.o.: > 300 mg/kg
